Measured values from patent US20200306295A1, “METHOD AND DEVICE FOR ANNIHILATION OF Staphylococcus aureus” (priority 2017, published 2020).

Tested on: 200 kinds of cytokines
Assay: Fold change of 200 cytokines in homogenized wound tissue
Assay type: in vivo, Balb/c mice
Source text: To quantify the physiological condition of the wound tissues, we measured the concentrations of 200 kinds of cytokines (Table. 1) from the supernatant of homogenized tissue solution. Cytokines are small secreted proteins released by cells and have specific effect on the interactions and communications between cells (25).
To initiate the formation of a skin wound, five groups (n=5) of eight-week old female Balb/c mice (obtained from Harlan Laboratories, Indianapolis, Ind., USA) were disinfected with ethanol (70%) and shaved on the middle of the back (approximately a one-inch by one-inch square region around the injection site) one day prior to infection as described from a reported procedure (3). To prepare the bacterial inoculum, an aliquot of overnight culture of MRSA USA300 was transferred to fresh Tryptic soy broth and shaken at 37° C. until an OD600 value of ˜1.0 was achieved. The cells were centrifuged, washed once with PBS, re-centrifuged, and then re-suspended in PBS. Mice subsequently received an intradermal injection (40 μL) containing 2.40×10^9 CFU/mL MRSA USA300.
One group of mice was left untreated (negative control). Each group of mice receiving a particular treatment regimen was housed separately in a ventilated cage with appropriate bedding, food, and water. […] Mice were treated twice daily (once every 12 hours) for three days, before they were humanely euthanized via CO2 asphyxiation 12 hours after the last dose was administered. The region around the skin wound was lightly swabbed with ethanol (70%) and excised. The tissue was subsequently homogenized in PBS. The homogenized tissue was then serially diluted in PBS before plating onto mannitol salt agar plates. Plates were incubated for at least 19 hours at 37° C. before viable MRSA CFU/mL were counted for each group. Outlier was removed based upon the Dixon Q Test.

CC(=O)O[C@H]1C[C@@]2(C)[C@@H](C[C@@H](O)[C@H]3[C@@]4(C)CC[C@@H](O)[C@@H](C)[C@@H]4CC[C@@]32C)/C1=C(\CCC=C(C)C)C(=O)O [fusidic acid]
fold change of MBL-2 (mean) (cytokine MBL-2, group mean, wound tissue of MRSA-infected mice): 0.0893
fold change of Meteorin (mean) (cytokine Meteorin, group mean, wound tissue of MRSA-infected mice): 0.3361
fold change of NOV (mean) (cytokine NOV, group mean, wound tissue of MRSA-infected mice): −0.2053
fold change of Nope (mean) (cytokine Nope, group mean, wound tissue of MRSA-infected mice): 0.0534
fold change of OX40 Ligand (mean) (cytokine OX40 Ligand, group mean, wound tissue of MRSA-infected mice): −0.1454
fold change of Osteoactivin (mean) (cytokine Osteoactivin, group mean, wound tissue of MRSA-infected mice): 1.1132
fold change of P-Cadherin (mean) (cytokine P-Cadherin, group mean, wound tissue of MRSA-infected mice): 0.5883
fold change of Periostin (mean) (cytokine Periostin, group mean, wound tissue of MRSA-infected mice): 0.1651
fold change of PlGF-2 (mean) (cytokine PlGF-2, group mean, wound tissue of MRSA-infected mice): −0.0798
fold change of Progranulin (mean) (cytokine Progranulin, group mean, wound tissue of MRSA-infected mice): −0.4424
fold change of Prostasin (mean) (cytokine Prostasin, group mean, wound tissue of MRSA-infected mice): 0.1030
fold change of Renin 1 (mean) (cytokine Renin 1, group mean, wound tissue of MRSA-infected mice): −0.4138
fold change of TIM-1 (mean) (cytokine TIM-1, group mean, wound tissue of MRSA-infected mice): −0.0806
fold change of Testican 3 (mean) (cytokine Testican 3, group mean, wound tissue of MRSA-infected mice): −0.4097
fold change of Tryptase ε (mean) (cytokine Tryptase ε, group mean, wound tissue of MRSA-infected mice): −0.0627
share of 200 cytokines with negative fold change vs untreated (fusidic acid alone): around 50%
fold change of 4-1BB (mean, wound tissue): −0.0924
fold change of 6Ckine (mean, wound tissue): 0.0930
fold change of ACE (mean, wound tissue): −0.3271
fold change of ADAMTS1 (mean, wound tissue): 0.2350
fold change of ALK-1 (mean, wound tissue): −0.0491
fold change of ANG-3 (mean, wound tissue): 0.0313
fold change of ANGPTL3 (mean, wound tissue): −0.2231
fold change of AR (mean, wound tissue): 0.6274
fold change of Activin A (mean, wound tissue): 0.2305
fold change of Adiponen (mean, wound tissue): 0.0147
fold change of Artemin (mean, wound tissue): 0.4218
fold change of Axl (mean, wound tissue): 0.0523
fold change of B7-1 (mean, wound tissue): −0.0561
fold change of BAFF R (mean, wound tissue): 0.0687
fold change of BLC (mean, wound tissue): −0.3200
fold change of BTC (mean, wound tissue): 3.8576
fold change of C5a (mean, wound tissue): 0.1215
fold change of CCL6 (mean, wound tissue): −0.4027
fold change of CCL28 (mean, wound tissue): 1.0791
fold change of CD6 (mean, wound tissue): 0.3476
fold change of CD27 (mean, wound tissue): 0.2818
fold change of CD27L (mean, wound tissue): −0.0491
fold change of CD30 (mean, wound tissue): 0.0137
fold change of CD30L (mean, wound tissue): −0.0682
fold change of CD36 (mean, wound tissue): 0.0674
fold change of CD40 (mean, wound tissue): 0.3337
fold change of CD40L (mean, wound tissue): 0.0244
fold change of CD48 (mean, wound tissue): −0.0498
fold change of CRP (mean, wound tissue): −0.0863
fold change of CT-1 (mean, wound tissue): −0.0581
fold change of CTLA4 (mean, wound tissue): 0.2149
fold change of CXCL16 (mean, wound tissue): 0.2447
fold change of Chemerin (mean, wound tissue): 0.1948
fold change of Chordin (mean, wound tissue): −0.0599
fold change of Clusterin (mean, wound tissue): 0.2455
fold change of Cystatin C (mean, wound tissue): −0.0271
fold change of DLL4 (mean, wound tissue): −0.0252
fold change of Decorin (mean, wound tissue): −0.0222
fold change of Dkk-1 (mean, wound tissue): 0.1157
fold change of Dtk (mean, wound tissue): 0.1217
fold change of E-Cadherin (mean, wound tissue): 0.1848
fold change of E-selectin (mean, wound tissue): −0.2004
fold change of EDAR (mean, wound tissue): −0.4592
fold change of EGF (mean, wound tissue): 0.0517
fold change of Endocan (mean, wound tissue): 0.0559
fold change of Endoglin (mean, wound tissue): 0.4267
fold change of Eotaxin (mean, wound tissue): 0.8019
fold change of Eotaxin-2 (mean, wound tissue): 0.0292
fold change of Epigen (mean, wound tissue): −0.0490
fold change of Epiregulin (mean, wound tissue): −0.2220
fold change of Fas (mean, wound tissue): 0.0163
fold change of Fas L (mean, wound tissue): −0.4112
fold change of Fcg RIIB (mean, wound tissue): 0.0602
fold change of Fetuin A (mean, wound tissue): −0.6614
fold change of Flt-3L (mean, wound tissue): 0.1619
fold change of Fractalkine (mean, wound tissue): −0.2364
fold change of G-CSF (mean, wound tissue): 0.1394
fold change of GITR (mean, wound tissue): 0.3966
fold change of GITR L (mean, wound tissue): 0.2327
fold change of GM-CSF (mean, wound tissue): −0.1708
fold change of Galectin-1 (mean, wound tissue): 0.0284
fold change of Galectin-3 (mean, wound tissue): 0.0624
fold change of Galectin-7 (mean, wound tissue): 0.7990
fold change of Gas 1 (mean, wound tissue): 0.0715
fold change of Gas 6 (mean, wound tissue): −0.0661
fold change of Granzyme B (mean, wound tissue): 0.5603
fold change of Gremlin (mean, wound tissue): 4.9707
fold change of H60 (mean, wound tissue): 0.2171
fold change of HAI-1 (mean, wound tissue): 0.2271
fold change of HGF (mean, wound tissue): 0.2701
fold change of HGF R (mean, wound tissue): 0.0292
fold change of I-TAC (mean, wound tissue): 0.3744
fold change of ICAM-1 (mean, wound tissue): 1.5512
fold change of IFNg (mean, wound tissue): −0.0599
fold change of IFNg R1 (mean, wound tissue): 0.0709
fold change of IGF-1 (mean, wound tissue): −0.4445
fold change of IGFBP-2 (mean, wound tissue): −0.0879
fold change of IGFBP-3 (mean, wound tissue): −0.2120
fold change of IGFBP-5 (mean, wound tissue): −0.0782
fold change of IGFBP-6 (mean, wound tissue): −0.2897
fold change of IL-1 R4 (mean, wound tissue): −0.0208
fold change of IL-1a (mean, wound tissue): −0.0503
fold change of IL-1b (mean, wound tissue): −0.2158
fold change of IL-1ra (mean, wound tissue): 0.3851
fold change of IL-2 (mean, wound tissue): 0.0606
fold change of IL-2 Ra (mean, wound tissue): 0.1879
fold change of IL-3 (mean, wound tissue): −0.1398
fold change of IL-3 Rb (mean, wound tissue): 0.0789
fold change of IL-4 (mean, wound tissue): −0.0096
fold change of IL-5 (mean, wound tissue): −0.0953
fold change of IL-6 (mean, wound tissue): 0.2682
fold change of IL-7 (mean, wound tissue): 0.1116
fold change of IL-7 Ra (mean, wound tissue): −0.7276
fold change of IL-9 (mean, wound tissue): 0.1408
fold change of IL-10 (mean, wound tissue): −0.0351
fold change of IL-12p40 (mean, wound tissue): 0.0324
fold change of IL-12p70 (mean, wound tissue): 0.0029
fold change of IL-13 (mean, wound tissue): −0.5654
fold change of IL-15 (mean, wound tissue): −0.0506
fold change of IL-17 (mean, wound tissue): 0.2684
fold change of IL-17B (mean, wound tissue): −0.0513
fold change of IL-17B R (mean, wound tissue): 0.4884
fold change of IL-17E (mean, wound tissue): −0.1800
fold change of IL-17F (mean, wound tissue): 0.2592
fold change of IL-20 (mean, wound tissue): 0.0953
fold change of IL-21 (mean, wound tissue): −0.4052
fold change of IL-22 (mean, wound tissue): −0.0487
fold change of IL-23 (mean, wound tissue): 0.2627
fold change of IL-28 (mean, wound tissue): −0.1588
fold change of IL-33 (mean, wound tissue): 0.3416
fold change of JAM-A (mean, wound tissue): 0.3062
fold change of KC (mean, wound tissue): 0.0909
fold change of Kremen-1 (mean, wound tissue): 0.2672
fold change of L-Selectin (mean, wound tissue): −0.3559
fold change of LIX (mean, wound tissue): −0.0313
fold change of LOX-1 (mean, wound tissue): 0.0568
fold change of Leptin (mean, wound tissue): −0.1199
fold change of Leptin R (mean, wound tissue): 0.1134
fold change of Limitin (mean, wound tissue): −0.1844
fold change of Lipocalin-2 (mean, wound tissue): −0.0695
fold change of Lungkine (mean, wound tissue): −0.0819
fold change of Lymphotactin (mean, wound tissue): 0.0908
fold change of MCP-1 (mean, wound tissue): 0.0071
fold change of MCP-5 (mean, wound tissue): −0.0915
fold change of MCSF (mean, wound tissue): −0.5503
fold change of MDC (mean, wound tissue): −0.0764
fold change of MFG-E8 (mean, wound tissue): 0.4647
fold change of MIG (mean, wound tissue): 0.5378
fold change of MIP-1a (mean, wound tissue): −0.3165
fold change of MIP-1b (mean, wound tissue): −0.5769
fold change of MIP-1g (mean, wound tissue): 0.0304
fold change of MIP-2 (mean, wound tissue): −0.0070
fold change of MIP-3a (mean, wound tissue): 0.3460
fold change of MIP-3b (mean, wound tissue): 0.0690
fold change of MMP-2 (mean, wound tissue): 0.1026
fold change of MMP-3 (mean, wound tissue): −0.1230
fold change of MMP-10 (mean, wound tissue): 0.3470
fold change of MadCAM-1 (mean, wound tissue): −0.0787
fold change of Marapsin (mean, wound tissue): −0.1703
fold change of Neprilysin (mean, wound tissue): 0.5936
fold change of OPG (mean, wound tissue): 0.9914
fold change of OPN (mean, wound tissue): 0.8216
fold change of P-selectin (mean, wound tissue): −0.2374
fold change of PDGF-AA (mean, wound tissue): 0.4578
fold change of PF4 (mean, wound tissue): −0.6256
fold change of Pentraxin 3 (mean, wound tissue): −0.6735
fold change of Persephin (mean, wound tissue): 0.5348
fold change of Pro-MMP-9 (mean, wound tissue): 0.0197
fold change of Prolactin (mean, wound tissue): 0.4580
fold change of RAGE (mean, wound tissue): 0.1727
fold change of RANTES (mean, wound tissue): −0.2545
fold change of Resistin (mean, wound tissue): 0.2752
fold change of SCF (mean, wound tissue): 0.1498
fold change of SDF-1a (mean, wound tissue): 0.1707
fold change of SLAM (mean, wound tissue): 0.1871
fold change of Shh-N (mean, wound tissue): −0.0849
fold change of TACI (mean, wound tissue): 0.4640
fold change of TARC (mean, wound tissue): 0.3205
fold change of TCA-3 (mean, wound tissue): −0.1264
fold change of TCK-1 (mean, wound tissue): −0.0185
fold change of TECK (mean, wound tissue): 0.4529
fold change of TGFb1 (mean, wound tissue): 0.0743
fold change of TNF RI (mean, wound tissue): −0.1306
fold change of TNF RII (mean, wound tissue): −0.2811
fold change of TNFα (mean, wound tissue): −0.4306
fold change of TPO (mean, wound tissue): 0.2663
fold change of TRANCE (mean, wound tissue): 0.0310
fold change of TREM-1 (mean, wound tissue): 0.0981
fold change of TROY (mean, wound tissue): 0.0517
fold change of TSLP (mean, wound tissue): −0.0086
fold change of TWEAK (mean, wound tissue): −0.0621
fold change of TWEAK R (mean, wound tissue): −0.2341
fold change of TremL1 (mean, wound tissue): −0.0440
fold change of VCAM-1 (mean, wound tissue): −0.0283
fold change of VEGF (mean, wound tissue): 0.0403
fold change of VEGF R1 (mean, wound tissue): 0.1580
fold change of VEGF R3 (mean, wound tissue): 0.1061
fold change of VEGF-B (mean, wound tissue): 0.0230
fold change of VEGF-D (mean, wound tissue): 0.0367
fold change of bFGF (mean, wound tissue): −0.4981
fold change of gp130 (mean, wound tissue): 0.5867
fold change of sFRP-3 (mean, wound tissue): 0.0607
